Assay: Stability study in hard gelatin capsules under ICH storage conditions
Assay type: physicochemical
Conditions: for Stability formulated in hard gelatin capsules: conclusion from tables I and II; for Stability under the storage conditions in accordance with the international recommendations: general statement
Protocol: 3,4-DAP tartrate, as prepared above in example 1, was introduced into hard gelatin capsules made of gelatin of size No. 3 in a proportion of 10 mg (expressed as weight of 3,4-DAP in the free base form) per hard gelatin capsule (Hard gelatin capsules A).
In the same way and by way of comparison, hard gelatin capsules made of gelatin of size No. 3 including 10 mg of 3,4-DAP per hard gelatin capsule were prepared (Hard gelatin capsules B).
A stability study on 3,4-DAP tartrate and on 3,4-DAP, introduced respectively into hard gelatin capsules A and B, was subsequently carried out.
This study was carried out under the conditions recommended by the international recommendations for the study of the stability of active principles (International Conference on Harmonization, Draft Guideline on Stability Testing of New Drug and Product, November 1999, CPMP/ICH/2736/99).

| Compound | Stability formulated in hard gelatin capsules | Stability under the storage conditions in accordance with the international recommendations |
| --- | --- | --- |
| Nc1ccncc1N [3,4-DAP, 3,4-diaminopyridine, reference compound] | unstable | unstable |
| Nc1ccncc1N.O=P(O)(O)O [3,4-DAP phosphate, 3,4-diaminopyridine Phosphate] |  | very high stability |
| Nc1ccncc1N.O=C(O)C(O)C(O)C(=O)O (centres unmarked) [3,4-DAP tartrate, 3,4-diaminopyridine Tartrate] | great stability | very high stability |
